For data set [1], the system named is Mouse leukemia cell L 1210. Put plainly: Anti tumor test 1: survival of mice implanted with L 1210 leukemia. The class given is in vivo. The conditions noted are these: i.v. BHAC aqueous solution; for T/C: mean survival time vs control. The source says:
The mixture of chloroform and methanol (8:2 V/V) containing egg yolk lecithin (245 μmole), egg yolk sphingomyelin (105 μmole) and Cytarabine prodrug (Example 8) (87.5 and 262.5 μmole respectively) was taken in a roundbottom flask. Liposome suspensions containing Cytarabine prodrug (Concentration: 10 and 20 μmole/ml respectively) were obtained in a similar manner to that of the above-mentioned method. Mouse leukemia cell L 1210 (10^5 cells) were implanted intraperitoneally into BDF female mice (7 weeks).
After 24 hours after inoculation, Cytarabine aqueous solution (dose: 1000 and 3000 μmole/kg respectively), above-mentioned liposome suspension containing Cytarabine prodrug (dose: 100 and 300 μmole/kg respectively)and aqueous solution of N^4 -behenoyl-1-β-arabinofuranosylcytosine (hereinafter referred to as BHAC) which is a known compound as Cytarabine prodrug and is shown by the following structure (dose: 100 and 300 μmole/kg respectively) were administered intravenously to the mouse at a volume of 0.2 ml or 0.3 ml (in case the administration at the dose of 300 μmole/kg of Cytarabine prodrug) per 20 g of mouse body weight. After the treatment, survival of the mice was recorded. [drawing 9]

Data set [2] in a line: Conversion Test 1: conversion half life of prodrug to parent compound in rat serum. It counts as in vitro ADME. The conditions noted are these: rat, serum; for half-life: Half life (t 1/2). The protocol: Chloroform solution containing egg yolk lecithin (84 μmole), egg yolk sphingomyelin (36 μmole) and Mitomycin C prodrug ( 6 μmole) obtained in the below-mentioned Example 1 or 2 was poured into a round-bottom flask and evaporated to dryness.
To this were added sodium cholate (258 mg) and pH 7.4 phosphate buffered saline (hereinafter referred to as PBS) (4.8 ml) and the mixture was agitated to give a clear purple solution.
Sodium cholate was removed from the solution by the Lipoprep dialyzer (detergent removal apparatus prepared by Diachema Co., Ltd.) to give a liposome suspension containing Mitomycin C prodrug.
Chloroform solution containing egg yolk lecithin (70 μmole), egg yolk sphingomyelin (30 μmole) and FR900482 substance prodrug (Example 6)(5 μmole) was poured into a round-bottom flask and a liposome suspension containing FR900482 substance prodrug was obtained in a similar manner to that of above-mentioned method.
Above-mentioned two liposome suspensions containing Mitomycin C prodrug were each diluted with PBS at 2.5 times.
The liposome suspension containing FR900482 substance prodrug was diluted with PBS to obtain the drug concentration of 0.5 μmole/ml and was filtered through millex-GV (trademark: prepared by Millipore Co., Ltd.) filter (0.22μ).
After the liposome suspension and ethanol solution of each prodrug (0.5 ml) were added to mouse, rat or human serum (4.5 ml, 37° C.), samples were taken periodically and the concentration of each prodrug was determined by high-performance liquid chromotography.
Conversion half lives (t 1/2) of each prodrug to each parent compound in various kinds of serum were calculated by the concentration of each prodrug remaining at each time.

A short description of data set [3]: Bioavailability Test 3: blood concentration after i.v. emulsion or aqueous solution in mice. It counts as in vivo, ICR female mice. The conditions noted are these: mouse, iv, 0.8 umol/animal, read-out: Blood concentration of Mitomycin C Prodrug (Example 1). The procedure: The liposome suspension containing Mitomycin C prodrug (Example 1), which was prepared in the above Bioavailability Test 1, was diluted with PBS at the concentration of Mitomycin C prodrug of 2.5 μmole/ml and was filtered through a polycarbonate membrane (0.1μ). 0.2 ml of PBS solution of Mitomycin C or the liposome suspension containing Mitomycin C prodrug was administered intravenously to ICR female mice (8 weeks, body weight: about 25 g, 3 per one group) respectively, and the blood samples were withdrawn by cardiac puncture under anesthesia. The blood concentrations of Mitomycin C and Mitomycin C prodrug were determined in accordance with the same procedures as described in Bioavailability Test 1.
Each chloroform solution of Mitomycin C prodrug (Example 1) (4 μmole), Panacete 800 (trademark, prepared by Nihon Yushi Co., Ltd.) (40 mg), egg yolk lecithin (14 mg) and HCO-60 (trademark, prepared by Nikko Chemicals Co., Ltd.) (8 mg) was combined in a round-bottom flask and evaporated to dryness. To this was added PBS (1 ml) and emulsified with a sonicator to give an emulsion containing Mitomycin C prodrug. Each chloroform solution of liitomycin C prodrug (Example 1) (4 μmole) and HCO-60 (24 mg) was combined in a roundbottom flask and evaporated to dryness. The residue was dispersed in 1 ml of PBS and agitated vigorously to yield a clear solution. 0.2 ml of each preparations thus obtained which contained the prodrug at 4 μmole/ml, was administered to mice and the blood concentrations of Mitomycin C and Mitomycin C prodrug were determined according to the same procedures as described in Bioavailability Test 2.

A short description of data set [4]: Toxicity test: body weight change after i.v. administration to mice. It counts as in vivo, ICR male mice. The conditions noted are these: mouse. The procedure: Each chloroform solution of egg yolk lecithin (126 μmole), egg yolk sphingomyelin (54 μmole) and Mitomycin C prodrug (Example 1) (3.75, 24 and 37.5 μmole respectively) was combined in a round-bottom flask and evaporated to dryness. Liposome suspensions containing Mitomycin C prodrug were obtained according to the same procedures as described above. The liposome suspensions were diluted with PBS to obtain the desired drug concentration (0.15, 0.96 and 1.50 mg/ml as Mitomycin C) and were filtered through polycarbonate membranes (0.1 μ). PBS solution of Mitomycin C (dose: 1.0 and 6.4 mg/kg/day respectively) or above-mentioned liposome suspension containing Mitomycin C prodrug (dose: 1.0, 6.4 and 10 mg/kg/day as Mitomycin C) were administered intravenously to ICR male mice (6 week) at Day 1, 3 and 5 and the body weight change was recorded from Day 1 to 15.

Data set [5] can be described thus: Bioavailability Test 2: blood concentration after i.v. administration to mice. The class given is in vivo, ICR female mice. Conditions: iv, mouse, i.v. PBS solution of Mitomycin C. The protocol:
The blood concentrations of Mitomycin C and Mitomycin C prodrug were determined in accordance with the same procedures as described in Bioavailability Test 1.

The nature of data set [6]: Bioavailability Test 1: blood concentration after i.v. administration to rats. The arrangement: species or system SD male rats. Conditions: rat, in vivo, iv. The procedure:
Chloroform solution (14.3 ml) containing egg yolk lecithin (126 μmole), egg yolk sphingomyelin (54 μmole) and Mitomycin C prodrug (Example 1) (24 μmole) was poured into a round-bottom flask and evaporated at one hour. To this were added sodium cholate (194 mg) and PBS (6 ml) and agitated. A liposome suspension containing Mitomycin C prodrug was obtained according to a similar manner to that of above-mentioned method. The liposome suspension thus prepared was diluted with PBS to obtain the drug concentration of 3.0 μmole/ml and was filtered through a polycarbonate membrane (0.1 μ). 1.0 ml of PBS solution of Mitomycin C or the liposome suspension containing Mitomycin C prodrug prepared by the above-mentioned method was administered intravenously to SD male rats (7 weeks, body weight: about 300 g, 4 per one group) and blood samples were withdrawn at appropriate intervals from subclavian vein. The plasma samples were deproteinzed and the concentration of Mitomycin C was determined by high-performance liquid chromatography.
While Mitomycin C prodrug in the blood was determined by high-performance liquid chromatography after extraction with ethanol from the freeze-dried blood samples.

The mark [7] stands for this setting: i.v. aqueous solution (4 μmole/ml, 0.2 ml).
The mark [8] stands for this setting: i.v. emulsion (4 μmole/ml, 0.2 ml).

Where two headings read alike, the source gives them in different places.

The term T/C denotes the ratio of treated to control. In data set [1] (100 μmole/kg), `CCCCCCCCCCCCCCCCCCCCCC(=O)Nc1ccn([C@@H]2O[C@H](CO)[C@@H](O)[C@@H]2O)c(=O)n1` [BHAC, N^4-behenoyl-1-β-arabinofuranosylcytosine] yielded a Mean survival time of 11.0 ± 0.3 days and a T/C of 122%. In data set [1] (300 μmole/kg), this compound displayed a Mean survival time of 15.3 ± 0.5 days and a T/C of 170%.
Usually half-life stands for how long it takes for the measured level to halve. With `CO[C@@]12[C@H](COC(N)=O)C3=C(C(=O)C(C)=C(N)C3=O)N1C[C@H]1[C@@H]2N1C(=O)CO[C@H]1CC[C@@]2(C)C(=CC[C@H]3[C@@H]4CC[C@H]([C@H](C)CCCC(C)C)[C@@]4(C)CC[C@@H]32)C1` [Example 2, [1aS-(1aα, 8β, 8aα,8bα)]-6-amino-8-carbamoyloxymethyl-N-(cholest-5-en-3β-oxyacetyl) 1,1a,2,8,8 a,8b-hexahydro-8a-methoxy-5-methyl-aziridino [2',3':3,4]pyrrolo[1,2-a]indole-4,7-dione], in data set [2], the “Half life (t 1/2)” value is 17.3 h and the half-life was 9.3 h.
In the case of `CO[C@@]12[C@H](COC(N)=O)C3=C(C(=O)C(C)=C(N)C3=O)N1C[C@H]1[C@@H]2N1C(=O)CNC(=O)O[C@H]1CC[C@@]2(C)C(=CC[C@H]3[C@@H]4CC[C@H]([C@H](C)CCCC(C)C)[C@@]4(C)CC[C@@H]32)C1` [Example 1, [1aS-(1aα, 8β, 8aα, 8bα)]-6-amino-8-carbamoyloxymethyl-N'-[N-(cholest-5-en-3β-oxycarbonyl)glycyl]-1,1a,2,8,8a,8b-hexahydro-8a-methoxy-5-methy-aziridino[2',3':3,4]pyrrolo [1,2-a]indole-4,7-dione], in data set [3] (setting [7]), the concentration at 1 h is 186 µM, the concentration at 4 h was determined as 73.9 µM and the concentration at 7 h came to 22.2 µM. Also, in data set [3] (setting [8]), the concentration at 1 h was 251 µM, the concentration at 4 h is 81.6 µM and the concentration at 7 h amounted to 39 µM. Moreover, in data set [2], the “Half life (t 1/2)” value is 10.0 h and the half-life is 5.7 h. Besides, the Body weight in data set [4] (i.v. liposome suspension, 1.0 mg/kg/day as Mitomycin C at Day 1, 3, 5, 1 day) is 32.78 g. For the same compound, the Body weight in data set [4] (i.v. liposome suspension, 6.4 mg/kg/day as Mitomycin C at Day 1, 3, 5, 1 day) stood at 33.86 g. The same compound gave a Body weight in data set [4] (i.v. liposome suspension, 10.0 mg/kg/day as Mitomycin C at Day 1, 3, 5, 1 day) of 35.14 g.
For the compound `CO[C@@]12[C@H](COC(N)=O)C3=C(C(=O)C(C)=C(N)C3=O)N1C[C@@H]1N[C@@H]12` [Mitomycin C], the concentration at 5 min was found to be 9.15 µM in data set [5] (5 min) and 10.7 µM in data set [6]. Further, the concentration at 0.25 h turned out to be 2.76 µM in data set [5] (15 min) and 5.54 µM in data set [6]. Moreover, the concentration at 0.5 h in data set [5] (30 min) was determined as 1.57 µM; in data set [6] it was 3.32 µM. The concentration at 1 h worked out at 0.11 µM in data set [5] (1 hr) and 1.04 µM in data set [6]. The concentration at 2 h in data set [6] is 0.11 µM. Besides, the Body weight in data set [4] (i.v. PBS solution, 1.0 mg/kg/day at Day 1, 3, 5, 1 day) was found to be 33.78 g; in data set [4] (i.v. PBS solution, 1.0 mg/kg/day at Day 1, 3, 5, 5 days), 33.86 g; in data set [4] (i.v. PBS solution, 1.0 mg/kg/day at Day 1, 3, 5, 15 days), 35.26 g; in data set [4] (i.v. PBS solution, 6.4 mg/kg/day at Day 1, 3, 5, 1 day), 35.54 g; in data set [4] (i.v. PBS solution, 6.4 mg/kg/day at Day 1, 3, 5, 5 days) it was 29.36 g. Further, the “Death (in body weight column, 15 days)” value in data set [4] (i.v. PBS solution, 6.4 mg/kg/day at Day 1, 3, 5, at 8 days) is listed as “All died”.

Source of the values: patent US4772594A, “Prodrug compounds, process for the preparation thereof and sustained release preparation comprising the same” (Fujisawa Pharmaceutical Co., Ltd., priority 1986, dated 1988).
